From US4448763A, “Alteration of gallium biodistribution using indium complexes for enhanced early imaging” (priority 1980, dated 1984)

Legend:
[1] = Imaging of 67Ga distribution in non-tumored rats, clearing agent six hours post dosing; assay type: in vivo, male Sprague Dawley rats
Text: Initial studies used non-tumored male Sprague Dawley rats weighing between 250 and 300 grams. […] In all imaging studies, the animals were anesthetized by intraperitoneal injection of urethane (1 gm/Kg), and the left external jugular vein cannulated as a dosing site. The animals were then positioned under the detection of the γ-camera (Union Carbide; CLEON 720 Large Field Gamma Camera coupled with a CLEON 110 Image Processor) and images were obtained periodically.

[2] = Blood clearance of 67Ga (external blood loop), clearing agent given six hours after radiopharmaceutical; assay type: in vivo, male Sprague Dawley rats; set-up: % Increase in Blood Activity / Net Decrease in blood activity / % Decrease in Blood Activity: concentration or dose not given beside the values; details: for % Decrease in Blood Activity: 67Ga blood activity, clearing agent six hours after injection of radiopharmaceutical; for Net Decrease in blood activity / % Increase in Blood Activity / change in blood activity (in words): clearing agent six hours after radiopharmaceutical; for % Increase in Blood Activity: rise following the initial drop
[3] = system: 5123C hepatoma; experiment: Imaging of 67Ga distribution in tumored rats, clearing agent six hours after radiopharmaceutical
[4] = system: 5123C hepatoma; experiment: Imaging of 67Ga distribution in tumored rats, clearing agent two hours after radiopharmaceutical; assay type: in vivo, male Buffalo rats
Protocol: FIGS. 3A-3C are scans (Union Carbide Cleon model 720 large field gamma camera) of Buffalo rats bearing implanted 5123C hepatomas.
At this point, the rat on the left received carrier gallium citrate (3.3 mg/Kg) and the rat on the right received indium citrate (2.1 mg/Kg).
Initial studies used non-tumored male Sprague Dawley rats weighing between 250 and 300 grams. Subsequent studies in tumored rats used male Buffalo rats bearing a 5123C hepatoma (The tumor line was initiated from donor animals donated by Drs. R. L. Hayes and B. Byrd of the Oak Ridge Associated Universities). In all imaging studies, the animals were anesthetized by intraperitoneal injection of urethane (1 gm/Kg), and the left external jugular vein cannulated as a dosing site. The animals were then positioned under the detection of the γ-camera (Union Carbide; CLEON 720 Large Field Gamma Camera coupled with a CLEON 110 Image Processor) and images were obtained periodically.
When the clearing agent was given two hours post radiopharmaceutical dosing, there were significant changes in gallium-67 distribution (FIG. 3). […] The results from use of indium citrate were somewhat more dramatic in that the activity is greatly diminished throughout the soft tissue regions. […] The most significant distributional change, however, is the obvious increase in tumor activity. […] To test this hypothesis, indium citrate was given with gallium-67 citrate as a single solution. […] Twenty minutes after the mixed dose is given, there is little activity outside the kidneys, bladder, tumor and bone. After two hours, there is essentially no activity in the animal other than in the above mentioned regions.

[5] = Blood clearance of 67Ga (external blood loop), clearing agent given two hours after radiopharmaceutical; assay type: in vivo, male Sprague Dawley rats
Protocol: Relative tissue concentrations are monitored by external imaging.
For blood clearance studies, male Sprague Dawley rats weighing 250-300 grams were used. The animals were anesthetized by peritoneal injection of an aqueous solution of urethan (1 gm/Kg). The right carotid artery and left jugular vein were exposed and an external blood loop (PE-50 tubing; volume.perspectiveto.0.14 ml) was inserted between the vessels. […] The right external jugular vein was then exposed and cannulated as an injection site. The animal was placed in a lead cradle and the blood loop inserted into the shielded well of a sodium iodide.thallium crystal. The animal received an injection of carrier-free gallium citrate (100-120 μCi) via the jugular cannula. […] Six hours post injection, the animal received a second injection containing one of the clearing agents (.perspectiveto.7.2 mmole/Kg). In subsequent experiments, clearing agents were administered two hours after or simultaneously with the radioactive dose.

[6] = relatively large doses; cited from earlier work
[7] = in vivo; cited from earlier work
[8] = cited from earlier work
[9] = versus gallium alone; cited from earlier work
[10] = cited from earlier work; remark: listed apart in the source
[11] = Blood activity-time curve of carrier-free gallium-67 citrate, no clearing agent; assay type: in vivo, normal Sprague Dawley rat; details: single i.v.
Text: In this study, an external blood-loop technique (Int J of Appl Radiat Isot 29: 189-190, 1978) is used to monitor blood activity of the radiopharmaceutical as a function of time. Relative tissue concentrations are monitored by external imaging.
For blood clearance studies, male Sprague Dawley rats weighing 250-300 grams were used. The animals were anesthetized by peritoneal injection of an aqueous solution of urethan (1 gm/Kg). The right carotid artery and left jugular vein were exposed and an external blood loop (PE-50 tubing; volume.perspectiveto.0.14 ml) was inserted between the vessels. Blood was diverted from the artery, through the loop, and back to the animal via the vein (Int J of Appl Radiat Isot 29: 189-190, 1978). The right external jugular vein was then exposed and cannulated as an injection site. The animal was placed in a lead cradle and the blood loop inserted into the shielded well of a sodium iodide.thallium crystal. The animal received an injection of carrier-free gallium citrate (100-120 μCi) via the jugular cannula. Blood activity within the loop was continuously monitored as a function of time using a Packard Model 9012 Multi-channel Analyzer/Multi-scaler system (Packard Instrument Co., Downersville, Ill.). Six hours post injection, the animal received a second injection containing one of the clearing agents (.perspectiveto.7.2 mmole/Kg). […]

[12] = system: induced abscesses; details: rabbits bearing induced abscesses; cited from earlier work
[13] = clearing agent two hours post radiopharmaceutical, gallium citrate 3 mg/Kg, […] 2.1 mg/Kg
[14] = clearing agent two hours after radiopharmaceutical

In the case of CC(O)C(=O)[O][Al]([O]C(=O)C(C)O)[O]C(=O)C(C)O (centres unmarked) [Aluminum, aluminum lactate], the “redistribution of radioactivity (imaging)” value [1] is reported as “no significant redistribution of the radioactivity”, the “% Decrease in Blood Activity” value [2] is reported as 9% and the “Net Decrease in blood activity” value [2] is reported as 6%. For the same compound, the “% Increase in Blood Activity” value [2] was 3%.
For O=C([O-])CC(O)(CC(=O)[O-])C(=O)[O-].[Ga+3] [Gallium, gallium citrate], the “redistribution of radioactivity outside tumor (imaging)” value ([3]; gallium citrate 3 mg/Kg) was “less dramatic effect”, the “loss of activity from the tumor (imaging)” value ([3]; gallium citrate 3 mg/Kg, compared with high dose) was “much less” and the “redistribution of radioactivity outside tumor (imaging)” value ([3]; gallium citrate 15 mg/Kg) was “obvious redistributions of radioactivity”. The “tumor activity (imaging)” value ([3]; gallium citrate 15 mg/Kg) was “tumor activity was observed to decrease”, the “clearing of soft tissue / abdominal activity (imaging)” value [4, 13] was “some clearing in the upper abdomen and in regions of the lower abdomen” and the “tumor activity (imaging)” value [4, 13] was “little loss of activity from the tumor region”. For the same compound, the “activity bound within tumors (imaging, summary)” value ([4]; moderate doses of carrier gallium, […] two hours after radiopharmaceutical) was “obviously affected”, the blood activity cleared [5, 14] was 78% and the “subsequent rise in blood activity (in words)” value [5, 14] was “characteristic rise in activity”. The “net clearance of blood activity” value ([5]; two hours after radiopharmaceutical, gallium 3.3 mg/Kg) was 70%, the “redistribution of radioactivity (imaging)” value [1] was “shifted the radioactivity out of the blood/soft tissue regions and into the kidneys and the bladder” and the “% Decrease in Blood Activity” value [2] was 40%. For the same compound, the “% Decrease in Blood Activity” value ([2]; listed as non-radioactive gallium) was “approximately 40%”, the “Net Decrease in blood activity” value [2] was 25% and the “change in blood activity (in words)” value [2] was “decrease very rapidly”. For the same compound, the “blood activity reduction vs no clearing agent” value ([2]; eight hours post radiopharmaceutical dosing, gallium 3.3 mg/Kg at six hours) was “approximately 25%”, the “% Increase in Blood Activity” value [2] was 15% and the “effect on blood and tumor activity” value [6] was “decrease blood activity without significantly reducing tumor activity”.
For O=C([O-])CC(O)(CC(=O)[O-])C(=O)[O-].[Sc+3] [Scandium citrate], the hemolytic anemia [7] is listed as “severe hemolytic anemia”, the “tumor to blood and tumor to tissue ratios” value ([8]; gallium-67 and scandium citrates injected simultaneously) is listed as “extremely high tumor to blood and tumor to tissue ratios” and the “effect upon gallium binding in tumors” value ([8]; in vivo) is listed as “little or no effect upon gallium binding in tumors”.
With CC(=O)[O-].CC(=O)[O-].CC(=O)[O-].[Tl+3] [Thallium, thallium triacetate] the “redistribution of radioactivity (imaging)” value [1] was “no significant redistribution of the radioactivity”, the “% Decrease in Blood Activity” value [2] was 0% and the “Net Decrease in blood activity” value [2] was 0%. For the same compound, the “change in blood activity (in words)” value [2] was “no change in blood activity” and the “% Increase in Blood Activity” value [2] was 0%.
For CC(=O)N(O)CCCCCNC(=O)CCC(=O)N(O)CCCCCNC(=O)CCC(=O)N(O)CCCCCN [desferoxamine], the “renal elimination rate of gallium desferoxamine complex” value [9] is given as “rate greater than that observed for gallium alone”.
In the case of O=C([O-])CC(O)(CC(=O)[O-])C(=O)[O-].[67Ga+3] [gallium-67 citrate], the “time of maximum gallium activity in tumors” value ([10]; after intravenous administration) is listed as “eighteen”, the “plasma / blood and soft tissue protein binding” value ([10]; given in very low doses) is listed as “extensively bound” and the “clearing from blood and soft tissue binding sites” value ([10]; in vivo) is listed as “slow process”. For the same compound, the radiation dose ([10]; prolonged retention of 67Ga in the body) was “relatively high radiation dose”, the “t1/2 of very rapid component of blood curve” value [11] was 12 s and the “time to completion of rapid distribution process” value ([11]; after dosing) was “four to six”.
In the case of iron dextran, the “clearing of gallium and abscess uptake” value [12] is given as “clearing of gallium with enhanced abscess uptake of gallium”.
